Measurements from the NIST ThermoML archive (doi:10.1021/acs.jced.6b00542).

Assay: xn = mol fraction of the nth substance listed
Conditions: for speed of sound: 100 kPa, Frequency=3 MHz, Sing-around technique in a fixed-path interferometer; for speed of sound / viscosity / mass density: Liquid; for viscosity / mass density: 102 kPa; for viscosity: Concentric cylinders viscometry; for mass density: Vibrating tube method; for surface tension liquid-gas: 294.5 K, Pendant drop shape

CCCCc1ccccc1 [butylbenzene] + CCCCCCCCCCCCCC
Conditions | mass density [kg/m3] | speed of sound [m/s] | viscosity [mPa·s]
293.15 K, x1 = 0.1414 | 770.92 | 1330.1 | 2.06
293.15 K, x1 = 0.2704 | 779.61 | 1329.5 | 1.86
293.15 K, x1 = 0.3915 | 788.74 | 1329.7 | 1.69
293.15 K, x1 = 0.4988 | 797.91 | 1330.9 | 1.55
293.15 K, x1 = 0.5961 | 807.14 | 1332.5 | 1.44
293.15 K, x1 = 0.6892 | 817.1 | 1334.9 | 1.34
293.15 K, x1 = 0.7751 | 827.32 | 1338.1 | 1.25
293.15 K, x1 = 0.8553 | 837.74 | 1342.1 | 1.18
293.15 K, x1 = 0.9299 | 849.02 | 1347.7 | 1.12
293.15 K, x1 = 1 | 860.51 | 1353.7 | 1.05
303.15 K, x1 = 0.1414 | 763.79 | 1292.6 | 1.7
303.15 K, x1 = 0.2704 | 772.41 | 1292.1 | 1.54
303.15 K, x1 = 0.3915 | 781.46 | 1292.3 | 1.42
303.15 K, x1 = 0.4988 | 790.54 | 1293.4 | 1.31
303.15 K, x1 = 0.5961 | 799.68 | 1294.9 | 1.22
303.15 K, x1 = 0.6892 | 809.54 | 1297.2 | 1.14
303.15 K, x1 = 0.7751 | 819.66 | 1300.2 | 1.07
303.15 K, x1 = 0.8553 | 829.96 | 1303.8 | 1.02
303.15 K, x1 = 0.9299 | 841.12 | 1309.2 | 0.965
303.15 K, x1 = 1 | 852.49 | 1314.9 | 0.91
313.15 K, x1 = 0.1414 | 756.65 | 1255.6 | 1.42
313.15 K, x1 = 0.2704 | 765.18 | 1255.1 | 1.31
313.15 K, x1 = 0.3915 | 774.14 | 1255.3 | 1.21
313.15 K, x1 = 0.4988 | 783.14 | 1256.3 | 1.12
313.15 K, x1 = 0.5961 | 792.18 | 1257.6 | 1.05
313.15 K, x1 = 0.6892 | 801.94 | 1259.8 | 0.987
313.15 K, x1 = 0.7751 | 811.95 | 1262.7 | 0.932
313.15 K, x1 = 0.8553 | 822.15 | 1266.1 | 0.886
313.15 K, x1 = 0.9299 | 833.19 | 1271.2 | 0.843
313.15 K, x1 = 1 | 844.43 | 1276.6 | 0.801
323.15 K, x1 = 0.1414 | 749.49 | 1219.1 | 1.21
323.15 K, x1 = 0.2704 | 757.94 | 1218.6 | 1.12
323.15 K, x1 = 0.3915 | 766.81 | 1218.7 | 1.04
323.15 K, x1 = 0.4988 | 775.71 | 1219.6 | 0.973
323.15 K, x1 = 0.5961 | 784.66 | 1220.9 | 0.915
323.15 K, x1 = 0.6892 | 794.32 | 1223 | 0.863
323.15 K, x1 = 0.7751 | 804.22 | 1225.6 | 0.818
323.15 K, x1 = 0.8553 | 814.31 | 1228.9 | 0.78
323.15 K, x1 = 0.9299 | 825.22 | 1233.7 | 0.744
323.15 K, x1 = 1 | 836.34 | 1238.7 | 0.713
333.15 K, x1 = 0.1414 | 742.31 | 1183.2 | 1.05
333.15 K, x1 = 0.2704 | 750.67 | 1182.7 | 0.973
333.15 K, x1 = 0.3915 | 759.45 | 1182.7 | 0.908
333.15 K, x1 = 0.4988 | 768.25 | 1183.5 | 0.853
333.15 K, x1 = 0.5961 | 777.11 | 1184.7 | 0.806
333.15 K, x1 = 0.6892 | 786.65 | 1186.6 | 0.762
333.15 K, x1 = 0.7751 | 796.45 | 1189.1 | 0.725
333.15 K, x1 = 0.8553 | 806.42 | 1192.1 | 0.691
333.15 K, x1 = 0.9299 | 817.22 | 1196.7 | 0.662
333.15 K, x1 = 1 | 828.21 | 1201.4 | 0.636
343.15 K, x1 = 0.1414 | 735.2 | – | 0.912
343.15 K, x1 = 0.2704 | 743.4 | – | 0.852
343.15 K, x1 = 0.3915 | 752 | – | 0.8
343.15 K, x1 = 0.4988 | 760.8 | – | 0.753
343.15 K, x1 = 0.5961 | 769.6 | – | 0.716
343.15 K, x1 = 0.6892 | 779 | – | 0.678
343.15 K, x1 = 0.7751 | 788.7 | – | 0.647
343.15 K, x1 = 0.8553 | 798.5 | – | 0.619
343.15 K, x1 = 0.9299 | 809.2 | – | 0.592
343.15 K, x1 = 1 | 819.9 | – | 0.571
353.15 K, x1 = 0.1414 | 728 | – | 0.804
353.15 K, x1 = 0.2704 | 736.1 | – | 0.754
353.15 K, x1 = 0.3915 | 744.6 | – | 0.711
353.15 K, x1 = 0.4988 | 753.3 | – | 0.671
353.15 K, x1 = 0.5961 | 762 | – | 0.639
353.15 K, x1 = 0.6892 | 771.3 | – | 0.608
353.15 K, x1 = 0.7751 | 780.9 | – | 0.581
353.15 K, x1 = 0.8553 | 790.6 | – | 0.557
353.15 K, x1 = 0.9299 | 801.1 | – | 0.534
353.15 K, x1 = 1 | 811.7 | – | 0.516
363.15 K, x1 = 0.1414 | 720.7 | – | 0.715
363.15 K, x1 = 0.2704 | 728.7 | – | 0.674
363.15 K, x1 = 0.3915 | 737.1 | – | 0.637
363.15 K, x1 = 0.4988 | 745.7 | – | 0.604
363.15 K, x1 = 0.5961 | 754.3 | – | 0.576
363.15 K, x1 = 0.6892 | 763.5 | – | 0.55
363.15 K, x1 = 0.7751 | 773 | – | 0.526
363.15 K, x1 = 0.8553 | 782.5 | – | 0.505
363.15 K, x1 = 0.9299 | 793 | – | 0.486
363.15 K, x1 = 1 | 803.4 | – | 0.469
373.15 K, x1 = 0.1414 | 713.3 | – | 0.641
373.15 K, x1 = 0.2704 | 721.2 | – | 0.606
373.15 K, x1 = 0.3915 | 729.5 | – | 0.575
373.15 K, x1 = 0.4988 | 738 | – | 0.547
373.15 K, x1 = 0.5961 | 746.5 | – | 0.523
373.15 K, x1 = 0.6892 | 755.6 | – | 0.5
373.15 K, x1 = 0.7751 | 764.9 | – | 0.48
373.15 K, x1 = 0.8553 | 774.3 | – | 0.461
373.15 K, x1 = 0.9299 | 784.7 | – | 0.444
373.15 K, x1 = 1 | 795 | – | 0.43

Conditions | surface tension liquid-gas [mN/m]
x1 = 0.1414 | 26.5
x1 = 0.2704 | 26.7
x1 = 0.3915 | 27
x1 = 0.4988 | 27
x1 = 0.5961 | 27.3
x1 = 0.6892 | 27.3
x1 = 0.7751 | 27.8
x1 = 0.8553 | 28
x1 = 0.9299 | 28.3
